In ChEMBL document CHEMBL1641557, “3-(Pyridin-2-yl-ethynyl)benzamide metabotropic glutamate receptor 5 negative allosteric modulators: hit to lead studies” (Bioorg Med Chem Lett, 2011):

Columns and labels:
[1] = Half life in rat liver microsomes; assay type: ADME, Microsome
[2] = AUClast in Swiss Webster mouse at 10 mg/kg, po; assay type: ADME, organism-based; set-up: time 0 - last, dose 10 mg/kg, route oral; conditions: plasma
[3] = Oral bioavailability in Beagle dog at 10 mg/kg; assay type: ADME, organism-based, Canis lupus familiaris; conditions: in vivo
[4] = Half life in Sprague-Dawley rat at 2 mg/kg, iv; assay type: ADME, organism-based; set-up: dose 2 mg/kg, route intravenous; conditions: in vivo
[5] = Oral bioavailability in Swiss Webster mouse at 10 mg/kg; assay type: ADME, organism-based; conditions: in vivo
[6] = Ratio of drug level in brain to plasma in Sprague-Dawley rat at 10 mg/kg, po; assay type: ADME, organism-based; set-up: dose 10 mg/kg, route oral
[7] = Clearance in Swiss Webster mouse at 2 mg/kg, iv; assay type: ADME, organism-based; set-up: dose 2 mg/kg, route intravenous; conditions: in vivo
[8] = Cmax in Swiss Webster mouse at 10 mg/kg, po; assay type: ADME, organism-based; set-up: dose 10 mg/kg, route oral; conditions: in vivo
[9] = Cmax in Sprague-Dawley brain rat at 10 mg/kg, po; assay type: ADME, organism-based; set-up: dose 10 mg/kg, route oral
[10] = Clearance in Sprague-Dawley rat at 2 mg/kg, iv; assay type: ADME, organism-based; set-up: dose 2 mg/kg, route intravenous; conditions: in vivo
[11] = Volume of distribution at steady state in Swiss Webster mouse at 2 mg/kg, iv; assay type: ADME, organism-based; set-up: dose 2 mg/kg, route intravenous; conditions: in vivo, read-out: Vdss
[12] = Cmax in Swiss Webster mouse brain at 10 mg/kg, po; assay type: ADME, organism-based; set-up: dose 10 mg/kg, route oral
[13] = Cmax in Sprague-Dawley rat at 10 mg/kg, po; assay type: ADME, organism-based; set-up: dose 10 mg/kg, route oral; conditions: in vivo
[14] = Oral bioavailability in Sprague-Dawley rat at 10 mg/kg; assay type: ADME, organism-based; conditions: in vivo
[15] = Ratio of drug level in brain to plasma in Swiss Webster mouse at 10 mg/kg, po; assay type: ADME, organism-based; set-up: dose 10 mg/kg, route oral
[16] = Volume of distribution at steady state in Beagle dog at 2 mg/kg, iv; assay type: ADME, organism-based, Canis lupus familiaris; set-up: dose 2 mg/kg, route intravenous; conditions: in vivo, read-out: Vdss
[17] = AUClast in Sprague-Dawley rat at 10 mg/kg, po; assay type: ADME, organism-based; set-up: time 0 - last, dose 10 mg/kg, route oral; conditions: plasma
[18] = Half life in Beagle dog at 2 mg/kg, iv; assay type: ADME, organism-based, Canis lupus familiaris; set-up: dose 2 mg/kg, route intravenous; conditions: in vivo
[19] = Cmax in Beagle dog at 10 mg/kg, po; assay type: ADME, organism-based, Canis lupus familiaris; set-up: dose 10 mg/kg, route oral; conditions: in vivo
[20] = Volume of distribution at steady state in Sprague-Dawley rat at 2 mg/kg, iv; assay type: ADME, organism-based; set-up: dose 2 mg/kg, route intravenous; conditions: in vivo, read-out: Vdss
[21] = AUClast in Beagle dog at 10 mg/kg, po; assay type: ADME, organism-based, Canis lupus familiaris; set-up: time 0 - last, dose 10 mg/kg, route oral; conditions: plasma
[22] = Clearance in Beagle dog at 2 mg/kg, iv; assay type: ADME, organism-based, Canis lupus familiaris; set-up: dose 2 mg/kg, route intravenous; conditions: in vivo
[23] = Half life in Swiss Webster mouse at 2 mg/kg, iv; assay type: ADME, organism-based; set-up: dose 2 mg/kg, route intravenous; conditions: in vivo

Compound: COc1ccc(C(=O)N2CCN(c3ccncn3)CC2)cc1C#Cc1ccccn1
- half-life [1]: 18 min

Compound: O=C(c1cccc(C#Cc2ccccc2)c1)N1CCN(c2cnccn2)CC1
- half-life [1]: 4 min

Compound: O=C(c1cccc(C#CCc2ccccc2)c1)N1CCN(c2ccccn2)CC1
- half-life [1]: 4 min

Compound: COc1ccc(C(=O)N2CCN(c3ccc(C)cn3)CC2)cc1C#Cc1ccccn1
- half-life [1]: > 30 min

Compound: Cc1ccc(C#Cc2cccc(C(=O)N3CCN(c4ccccn4)CC3)c2)cc1
- half-life [1]: 5 min

Compound: COc1ccc(C#Cc2cccc(C(=O)N3CCN(c4ccccn4)CC3)c2)cc1
- half-life [1]: 4 min

Compound: COc1ccc(C(=O)N2CCN(c3ccncn3)CC2)cc1C#Cc1ccccc1
- half-life [1]: 21 min

Compound: COc1ccc(C(=O)N2CCN(c3ccccn3)CC2)cc1C#Cc1ccccn1
- AUC(0-t) [2]: 519 ng·h/mL
- bioavailability [3]: 80%
- half-life [4]: 60 min
- bioavailability [5]: 20%
- Kp [6]: 0.15
- clearance [7]: 121 mL/min/kg
- Cmax [8]: 3.5 µM
- Cmax [9]: 1.79 µM
- clearance [10]: 12 mL/min/kg
- half-life [1]: 23 min
- Vd [11]: 3.2 L/kg
- Cmax [12]: 1.09 µM
- Cmax [13]: 11.9 µM
- bioavailability [14]: 85%
- Kp [15]: 0.31
- Vd [16]: 0.5 L/kg
- AUC(0-t) [17]: 13400 ng·h/mL
- half-life [18]: 126 min
- Cmax [19]: 16.4 µM
- Vd [20]: 0.9 L/kg
- AUC(0-t) [21]: 47100 ng·h/mL
- clearance [22]: 3 mL/min/kg
- half-life [23]: 12 min

Compound: Cc1ccc(N2CCN(C(=O)c3cccc(C#Cc4ccccc4)c3)CC2)nc1
- half-life [1]: 13 min

Compound: O=C(c1cccc(C#Cc2ccccc2)c1)N1CCN(c2ccccn2)CC1
- half-life [1]: 3 min

Compound: Nc1cccc(C#Cc2cccc(C(=O)N3CCN(c4ccccn4)CC3)c2)c1
- half-life [1]: 2 min

Compound: COc1ccc(C(=O)N2CCN(c3ccc(C)cn3)CC2)cc1C#Cc1ccccc1
- half-life [1]: 16 min

Compound: COc1ccc(C(=O)N2CCN(c3ccccn3)CC2)cc1C#Cc1ccccc1
- half-life [1]: 13 min

Compound: COc1ccc(C(=O)N2CCN(c3ccccn3)CC2)cc1C#Cc1nccs1
- half-life [1]: 15 min

Compound: Cc1ccc(C(=O)N2CCN(c3ccccn3)CC2)cc1C#Cc1ccccc1
- half-life [1]: 13 min

Compound: COc1ccc(C(=O)N2CCN(c3ccncn3)CC2)cc1C#Cc1cccc(Cl)c1
- half-life [1]: 7 min

Compound: Cc1ccc(C(=O)N2CCN(c3cnccn3)CC2)cc1C#Cc1ccccc1
- half-life [1]: 9 min

Compound: O=C(c1cccc(C#Cc2ccccc2)c1)N1CCN(c2ccncn2)CC1
- half-life [1]: 3 min

Compound: COc1ccc(C(=O)N2CCN(c3ccccn3)CC2)cc1C#Cc1cccc(C)n1
- half-life [1]: 11 min

Compound: O=C(c1cccc(C#Cc2ccccn2)c1)N1CCN(c2ccccn2)CC1
- half-life [1]: 5 min

Compound: COc1ccc(C(=O)N2CCN(c3cnccn3)CC2)cc1C#Cc1ccccc1
- half-life [1]: 5 min

Compound: COc1cccc(C#Cc2cccc(C(=O)N3CCN(c4ccccn4)CC3)c2)c1
- half-life [1]: 3 min
